The term IC50 denotes the midpoint of a concentration-inhibition curve. By Kd is commonly meant the concentration at which binding is half-saturated.

For three molecules, IC50 and Kd results are on record in patent US20220031853A1, “HSP90-TARGETING CONJUGATES AND FORMULATIONS THEREOF” (TARVEDA THERAPEUTICS, INC., priority 2018, published 2022).

Test [1] deals with LS174T (colon) tumor cells. Kind of test: Tumor cell cytotoxicity assay (CellTiter-Glo), LS174T. It is filed as cell-based. The following applies: Homo sapiens, 72 hrs, CellTiter-Glo ATP levels, read-out: in vitro cytotoxicity IC50. As for the experimental part:
(§1) Tumor cells were plated at 500-5,000 cells per well and incubated for 20-24 hrs at 37 °C at 5% CO2. Post cell incubation, compounds were reconstituted in DMSO to a stock concentration of 200 uM. A compound plate was then prepared containing a 10 point dilution in RPMI+10% FBS+0.25% DMSO. 5 uL of the dilution was then added for a final working concentration range of 10 uM to 0.0005 uM. Compounds and cells were then incubated for up to 72 hrs. Cells were then analyzed by CellTiter-Glo for ATP levels and percent inhibition calculated.
(§2) BT474 (breast), LS174T (colon), or HCT-116 (colon) tumor cells were plated at 2500 cells per well and incubated for 20-24 hrs at 37 °C at 5% CO2. Post cell incubation, compounds were reconstituted in DMSO to a stock concentration of 200 uM. A compound plate was then prepared containing a 10 point dilution in RPMI+10% FBS+0.25% DMSO. 5 uL of the dilution was then added for a final working concentration range of 10 uM to 0.0005 uM. Compounds and cells were then incubated for 72 hrs. Cells were then analyzed by CellTiter-Glo for ATP levels and percent inhibition calculated.

Test [2] has as its system HCT-116 (colon) tumor cells. Kind of test: Tumor cell cytotoxicity assay (CellTiter-Glo), HCT-116. The conditions noted are these: Homo sapiens; HCT-116 cells, 72 hrs, CellTiter-Glo ATP levels; read-out: in vitro cytotoxicity IC50. In kind it is cell-based. As for the experimental part:
as §1, §2
(In ATP-based viability assays light output follows the ATP content of the culture.)

For test [3], the system named is BT474 (breast) tumor cells. Kind of test: Tumor cell cytotoxicity assay (CellTiter-Glo), BT474. It is filed as cell-based. The conditions noted are these: Homo sapiens, BT-474, 72 hrs, CellTiter-Glo ATP levels, read-out: in vitro cytotoxicity IC50. As to the method: as §1, §2
The test system of test [4] is NCI-H460 cells (non-small cell lung cancer). Kind of test: Tumor cell cytotoxicity assay (CellTiter-Glo), NCI-H460. The conditions noted are these: Homo sapiens, 48 hrs, CellTiter-Glo ATP levels, read-out: in vitro cytotoxicity IC50. It is filed as cell-based. As for the experimental part:
as §1
NCI-H460 cells (non-small cell lung cancer) were plated at 500 cells per well and incubated for 20-24 hrs at 37° C. at 5% CO2. Post cell incubation, compounds were reconstituted in DMSO to a stock concentration of 200 uM. A compound plate was then prepared containing a 10 point dilution in RPMI+10% FBS+0.25% DMSO. 5 uL of the dilution was then added for a final working concentration range of 10 uM to 0.0005 uM. Compounds and cells were then incubated for 48 hrs. Cells were then analyzed by CellTiter-Glo for ATP levels and percent inhibition calculated.

Test [5] addresses T1, purified recombinant HSP90a (Homo sapiens, UniProt P07900).
T1 construct: purchased
Kind of test: HSP90a Assay Kit, fluorescence polarization competition with fluorescently labeled geldanamycin. The following applies: read-out: HSP90 Binding Kd. As for the experimental part:
The bindings of the conjugates to HSP90 were studied with the HSP90a Assay Kit. The HSP90a Assay Kit is designed for identification of HSP90a inhibitors using fluorescence polarization. The assay is based on the competition of fluorescently labeled geldanamycin for binding to purified recombinant HSP90a. The key to the HSP90a Assay Kit is the fluorescently labeled geldanamycin. The fluorescently labeled geldanamycin is incubated with a sample containing HSP90a enzyme to produce a change in fluorescent polarization that can then be measured using a fluorescence reader.

For `CCNC(=O)c1nnc(-c2cc(C(C)C)c(O)cc2O)n1-c1ccc(CN2CCN(C(=O)Cc3ccc(OC(=O)N(CC)C4CCN(C(=O)c5ccc(NC(=O)Nc6ccc(-c7nc(N8CCOCC8)nc(N8CCOCC8)n7)cc6)cc5)CC4)cc3)CC2)cc1` [Compound 18], the IC50 in test [1] amounted to 3370 nM; in test [2] it was 246 nM; in test [3], 1640 nM; in test [4] it was 389 nM.
With `CCNC(=O)c1nnc(-c2cc(C(C)C)c(O)cc2O)n1-c1ccc(CN2CCN(C(=O)Cc3ccc(OC(=O)N4CCN(c5ccc(-n6c(=O)n(C)c7cnc8ccc(-c9ccc(OC)nc9)cc8c76)cc5C(F)(F)F)CC4)cc3)CC2)cc1` [Compound 22], in test [5], the Kd amounted to 0.79 nM.
The same measure, in the same setting: next, `CCNC(=O)c1nnc(-c2cc(C(C)C)c(O)cc2O)n1-c1ccc(CN2CCN(C(=O)[C@H](N)Cc3ccc(OC(=O)N4CCN(c5ccc(-n6c(=O)n(C)c7cnc8ccc(-c9ccc(OC)nc9)cc8c76)cc5C(F)(F)F)CC4)cc3)CC2)cc1` [Compound 26]: 1.22 nM.
